Data from patent US20220073475A1, “5-MEMBERED HETEROARYL COMPOUNDS CONTAINING A HYDROXAMATE MOIETY AND THEIR USE” (UNIVERSITE DE LILLE, priority 2019, published 2022).

Assays:
TLM1 cells = experiment: X-ray radiation in combination with compound, propidium iodide dead cells, ratio of corrected AUC; assay type: cell-based, canine; settings: for Potency of X-ray radiations in combination with compound (in words): TLM1; for Activity: ratio of corrected AUC of X-ray radiation in combination with compound / corrected AUC of X-ray radiation alone: TLM1, compound at 30 μM
Experimental: Canine melanoma TLM-1 cells are maintained in DMEM medium supplemented with GlutaMAX™, 10% fetal bovine serum, 1× Hepes and 1% penicillin-streptomycin.
TLM-1 cells were seeded with the BioTek MicroFlo™ dispenser in μClear® black 384-well plates (Greiner) at the density of 20,000 cells/mL in 50 μL. Compounds for pre-treatment were added 2 h after the seeding, using an Echo 550 (Labcyte). The next day, cells were washed five times with 40 μL media without phenol red with a plate washer (Hydrospeed, Tecan). Cells were irradiated with 4, 6, 8, 12, 16, 20 and 24 Gray (Gy). […] This step was repeated every 72 h after radiation. Plates were incubated at 37° C. and 5% CO2. […] 4 images per well were collected. Images were analyzed with Columbus software (Perkin Elmer). In this system we used predefined building blocks to measure different parameters on nuclei detected. We applied a threshold based on propidium iodide intensity in nuclei of controls to select and count dead cells. By dividing the number of dead cells by the number of nuclei detected we obtained the percentage of dead cells. AUC were determined in one experiment with triplicate incubates on percentage of cells labelled with propidium iodide and were corrected by the percentage of cells labelled with propidium iodide at 0 Gy. Ratio of AUC corrected was determined as followed: Activity=(Area of the dose-concentration curve of cytotoxic agent combined with one concentration of compound corrected by the effect of the compound alone at 0Gy)/(Area of the dose-concentration curve of radiation alone corrected by the effect of the vehicle at 0Gy).

OPM2 cells = experiment: CFZ potency increase, ratio of CC50 of CFZ alone / with compound; assay type: cell-based, human
Excerpt: Human multiple myeloma cells OPM2 (ACC 50, DSMZ) are maintained at 0.3-0.7 10^6 cells/mL in RPMI1640 medium supplemented with GlutaMAX™, 10% fetal bovine serum and 1% penicillin-streptomycin.
(§1) We developed a cell-based, high content assay allowing the rapid detection and quantification of apoptotic cells. Caspase-3/7 activity was detected in real-time using the NucView™ 488 Caspase-3 substrate (Biotium), where the caspase-3/7 substrate peptide sequence DEVD is attached to a nucleic acid dye. The NucView™ 488 reagent crosses the plasma membrane to enter the cytoplasm, where the dye is unable to bind to DNA and remains non-fluorescent. Once the substrate has been cleaved by activated caspase-3/7 in apoptotic cells, the high-affinity DNA dye is released and migrates to the cell nucleus to stain the nucleus with a bright green fluorescence. All cell nuclei were also labeled with Hoechst 33342 (Ozyme).
For OPM2, briefly, nanoliters of compound and cytotoxic agent in DMSO stock solutions were first transferred and combined in 384-microtiter well plate using an Echo555 liquid handler (Labcyte). The exact volume of each solution to be transferred was calculated to achieve subsequently the target concentration in the 70 μL volume incubate. Final DMSO content was maintained at 0.2%. Then, 70 μL of cells treated with 1 μM NucView™ 488 and 20 ng/mL Hoechst 33342 were distributed to the plates to obtain a final density of 12,000 cells per well. The microplates were incubated at 37° C. and 5% CO2 in an automated LiCONiC STR240 UB cell incubator, and images were acquired at various times at 405 nm and 488 nm with the high-resolution automated confocal microscope INCell 6000 (GE). Four fields per well were read with the 20× objective in a confocal mode. The BioCel workstation was managed by VWorks automation control software
(§2) For all cells, Columbus software (Perkin) was used for image quantification and analysis. First, Hoechst 33342 staining was used for an automated detection of nuclei, in which the mean fluorescence intensity for NucView™ 488 was quantified. Inspection of control cells at initial time was used to set a threshold level of NucView™ 488 fluorescence to separate non apoptotic cells from apoptotic cells. Finally, for each well, the result was expressed as percentage of apoptotic cells in the total cell population. CC50 values were calculated from concentration-response curves by a nonlinear regression analysis at four parameters using Excel Fit or GraphPad Prim softwares.
(§3) Activity=(% of apoptotic cells with cytotoxic agent in combination with compound of the invention)/(% of apoptotic cells with cytotoxic agent alone). • Ratio of CC50: The CC50 of the cytotoxic agent was calculated in absence and in presence of a compound of the invention.
(§4) Activity=(CC50 of agent alone)/(CC50 of agent with compound). • Ratio of AUC. Activity=(Area of the dose-concentration curve of cytotoxic agent combined with one concentration of compound)/(Area of the dose-concentration curve of cytotoxic agent alone). (Lehar J. et al, 2008 (molecular systems biology 4:215)).

HeLa cells = experiment: as above; assay type: cell-based, human; settings: compound at 7.5 μM
Excerpt: Human HeLa cells (uterine cervical carcinoma) are maintained in DMEM medium supplemented with GlutaMAX™, 10% fetal bovine serum and 1% penicillin-streptomycin.
as §1
(§5) For HeLa and MCF7 cells, briefly, cells were seeded in 384-microtiter well plate (1500 HeLa cells or 5000 MCF7 cells in 40 μL full medium per well) and let to attach overnight. Then the compound of the invention and the RE stressor were transferred to the cell culture plate using an Echo555 liquid handler (Labcyte) and 30 μL medium containing NucView™ and Hoechst 33342 were added. Final NucView™ 488 and Hoechst 33342 concentrations were 1 μM and 20 ng/mL, respectively. DMSO content was maintained at 0.2%. The microplates were incubated at 37° C. and 5% CO2 in an automated LiCONiC STR240 UB cell incubator, and images were acquired at various times at 405 nm and 488 nm with the high-resolution automated confocal microscope INCell 6000 (GE). Four fields per well were read with the 20× objective in a confocal mode. The BioCel workstation was managed by VWorks automation control software (Agilent).
as §2, §3, §4

MCF7 cells = experiment: as above; assay type: cell-based, human; settings: MCF7, compound at 15 μM
Experimental: Human epithelial MCF7 cells (mammary gland adenocarcinoma) are maintained in EMEM medium supplemented with GlutaMAX™, 10% fetal bovine serum, 0.01 mg insulin and 1% penicillin-streptomycin.
as §1, §5, §2, §3, §4

[1] = OPM2, compound at 7.5 μM (Table 5)
[2] = OPM2, compound at 7.5 μM (Table 6)

SMILES | Potency of X-ray radiations in combination with compound (in words) (TLM1 cells) | Activity: ratio of corrected AUC of X-ray radiation in combination with compound / corrected AUC of X-ray radiation alone (TLM1 cells) | Activity: ratio (CC50 of CFZ alone)/(CC50 of CFZ in combination with compound of the invention) (OPM2 cells; [1]) | Activity: ratio (CC50 of CFZ alone)/(CC50 of CFZ in combination with compound of the invention) (HeLa cells) | Activity: ratio (CC50 of CFZ alone)/(CC50 of CFZ in combination with compound of the invention) (OPM2 cells; [2]) | Activity: ratio (CC50 of CFZ alone)/(CC50 of CFZ in combination with compound of the invention) (MCF7 cells) | Activity: ratio (CC50 of CFZ alone)/(CC50 of CFZ in combination with compound of the invention) (OPM2 cells; OPM2, compound at a concentration of 3.7 μM (Table 5, footnote b))
CC(NC(=O)c1ccc(F)c(F)c1)c1cn([C@@H](CC(=O)NO)Cc2ccc3c(c2)CCCC3)nn1 (stereo partly drawn) [Compound 168, 3,4-difluoro-N-(1-(1-((R)-4-(hydroxyamino)-4-oxo-1-(5,6,7,8-tetrahydronaphthalen-2-yl)butan-2-yl)-1H-1,2,3-triazol-4-yl)ethyl)benzamide] | increase the potency | 2.4 | 2.8 |  |  |  | 
O=C(C[C@@H](Cc1ccc(-c2ccccc2)cc1)n1cc(CNC(=O)c2ccc(F)cc2)nn1)NO [Compound 32, (R)—N-[1-(1-biphenyl-4-ylmethyl-2-hydroxycarbamoyl-ethyl)-1H-[1,2,3]triazol-4-ylmethyl]-4-fluoro-benzamide] |  |  | 1.9 | 4.5 | 1.9 | 2.7 | 
O=C(C[C@@H](Cc1ccc2c(c1)CCCC2)n1cc(CNC(=O)c2ccc(F)c(F)c2)nn1)NO [Compound 144, (R)-3,4-difluoro-N-((1-(4-(hydroxyamino)-4-oxo-1-(5,6,7,8-tetrahydronaphthalen-2-yl)butan-2-yl)-1H-1,2,3-triazol-4-yl)methyl)benzamide] | increase the potency | 2.4 |  |  |  |  | 1.8
O=C(C[C@@H](Cc1ccc2ccccc2c1)n1cc(CCC(=O)Nc2ccc(F)c(F)c2)nn1)NO [Compound 81, N-(3,4-difluorophenyl)-3-[1-[3-(hydroxyamino)-1-(2-naphthylmethyl)-3-oxo-propyl]triazol-4-yl]propanamide] |  |  | 2.3 | 3.5 | 2.3 | 2.5 | 
CC(C)C[C@H](NCc1cn([C@@H](CC(=O)NO)Cc2ccc3ccccc3c2)nn1)C(=O)OC(C)(C)C [Compound 20] |  |  | 2.1 | 6.3 | 2.1 | 3.4 | 
O=C(C[C@@H](Cc1ccc2ccccc2c1)n1nncc1CNC(=O)c1ccccc1)NO [Compound 12, (R)—N-[3-(1-Hydroxycarbamoylmethyl-2-naphthalen-2-yl-ethyl)-3H-[1,2,3]triazol-4-ylmethyl]-benzamide] |  |  | 1.2 | 2.4 | 1.2 | 1.6 | 
O=C(C[C@@H](Cc1ccc2ccccc2c1)n1cc(C2CSCN2C(=O)c2ccc(F)cc2)nn1)NO (stereo partly drawn) [Compound 186, (3R)-3-(4-(3-(4-fluorobenzoyl)thiazolidin-4-yl)-1H-1,2,3-triazol-1-yl)-N-hydroxy-4-(naphthalen-2-yl)butanamide] | increase the potency | 2.0 | 2.9 |  |  |  | 
CN(Cc1cn([C@@H](CC(=O)NO)Cc2ccc3c(c2)CCCC3)nn1)C(=O)c1ccc(F)c(F)c1 [Compound 169, (R)-3,4-difluoro-N-((1-(4-(hydroxyamino)-4-oxo-1-(5,6,7,8-tetrahydronaphthalen-2-yl)butan-2-yl)-1H-1,2,3-triazol-4-yl)methyl)-N-methylbenzamide] | increase the potency | 2.5 | 3.3 |  |  |  | 
O=C(C[C@@H](Cc1ccc2ccccc2c1)n1cc(CNC(=O)c2ccc(F)c(Cl)c2)nn1)NO [Compound 62, 3-chloro-4-fluoro-N-[[1-[(1R)-3-(hydroxyamino)-1-(2-naphthylmethyl)-3-oxo-propyl]triazol-4-yl]methyl]benzamide] |  |  | 1.6 | 3.0 | 1.6 | 2.6 | 
O=C(C[C@@H](Cc1ccc2ccccc2c1)n1cc(C2CCCCN2C(=O)c2ccc(F)cc2)nn1)NO (stereo partly drawn) [Compound 187, (3R)-3-(4-(1-(4-fluorobenzoyl)piperidin-2-yl)-1H-1,2,3-triazol-1-yl)-N-hydroxy-4-(naphthalen-2-yl)butanamide] | increase the potency | 2.4 | 3.4 |  |  |  | 
O=C(C[C@@H](Cc1ccc2ccccc2c1)n1cc([C@@H]2CCCN2C(=O)c2ccc(F)c(F)c2)nn1)NO [Compound 93, (3R)-3-[4-[(2S)-1-(3,4-difluorobenzoyl)pyrrolidin-2-yl]triazol-1-yl]-4-(2-naphthyl)butanehydroxamic acid] | increase the potency | 1.2 | 2.3 |  |  |  | 
